Key:
EBV = EBV reactivation: qRT-PCR of EBV lytic gene expression after NMDI-1 treatment; assay type: cell-based; details: 25 μM NMDI-1, qRT-PCR, relative to Mock
Method: (§1) FIG. 4. Small-molecule NMD inhibitor NMDI-1 is a potent inducer of EBV and KSHV reactivation. (A-C) qRT-PCR analysis of EBV BZLF1, BRLF1, BMRF1, BLLF1b, and/or BcLF1 transcripts in EBV^+ AKBM (A), AGS-EBV (B), or LCL (C) cells treated with 25 μM NMDI-1 for 12 to 120 h, presented as fold expression relative to Mock-treated samples. (D-G) qRT-PCR analysis of Orf26, Orf50, Orf57, or Orf74 transcripts in KSHV^+ iSLK.rKSHV219 (D), HEK293T.rKSHV219 (E), BC3 (F), and BCBL1 (G) cells treated with 25 μM NMDI-1 for 24 to 120 h, presented as fold expression relative to Mock-treated samples. Data are representative of at least two (A, C) or three (B, D, E, F, G) independent experiments and presented as mean±SD of three biological replicates; ns, p>0.05, * p≤0.05, ** p≤0.01, *** p≤0.001.
(§2) Total RNA was extracted from cells using the E.Z.N.A. HP Total RNA Isolation Kit (OMEGA Bio-Tek) according to the manufacturer's instructions. Reverse transcription and qRT—PCR were performed using equal amounts (50-500 ng) of the purified RNA and the SuperScript III Platinum One-Step qRT-PCR kit with ROX (Invitrogen) on a 7500 Fast Real-Time PCR Machine (Applied Biosystems). Premixed master mixes of TaqMan primers and probes for the detection of human transcripts were purchased from Applied Biosystems (18S) or IDT (GAPDH, UPF1, UPF2, UPF3a, UPF3b, SMG1, SMG5, SMG6, SMG7, STAU1, STAU2, GADD45B, PDRG1, RPL32, HPRT1, MAP3K14). […] Abundance of target genes was calculated by normalizing for cellular 18S or GAPDH using the Comparative CT (ΔΔCt) method. […]

[1] = concentrations below those used in this study (25 μM); cited from earlier work
AGS cells = assay: Cytotoxicity assessment, flow cytometry with 7-AAD and FITC-Annexin V; assay type: cell-based, human; details: NMDI-1 between 5 and 50 μM, 48 h
Method: (§3) FIG. 11. Cytotoxicity assessment of NMDI-1 treatment. (A, B) Flow cytometry analysis of virus-negative Burkitt lymphoma BJAB (A) or AGS (B) cells treated with 5 to 100 μM NMDI-1 or DMSO (‘0 μM’ NMDI-1) for 48 h and stained with 7-AAD and FITC-Annexin V. Data are presented as mean percentage of live (orange, Annexin V^−/7-AAD^−), apoptotic (blue, […]), and necrotic (red, Annexin V^+/7-AAD^+) cells for three biological replicates. 1 μM staurosporine treatment served as positive control for apoptosis/necrosis induction.
(§4) AGS-EBV and HEK293T.rKSHV219 cells were seeded into 12-well plates and transfected with UPF1-specific or non-targeting control siRNAs for 24 to 120 h as indicated. As a positive control for reactivation, cells were treated with 2.5 mM NaB for 24 h. For microscopy, cells were incubated with Hoechst nucleic acid stain (1:2000, Invitrogen) in PBS for 5 min at RT, after which DAPI, as well as GFP or RFP were imaged using a fluorescence microscope (Omano). For flow cytometry analysis of GFP and RFP expression, cells were fixed in 4% paraformaldehyde in PBS and analyzed on an LSRFortessa (BD Biosciences). […] Data were analyzed using the Flowjo software (BD Biosciences).

BJAB cells = assay: as above; assay type: cell-based; details: virus-negative BJAB cells, NMDI-1 between 5 and 50 μM, 48 h
Method: as §3, §4

[2] = test system: EBV transcripts in AGS-EBV cells; assay: qRT-PCR of EBV transcript abundance in TPA-treated AGS-EBV cells with or without NMDI-1; assay type: cell-based; details: 5 ng/mL TPA, 25 μM NMDI-1, 24 h
Text: FIG. 3. NMD controls the abundance of the polycistronic EBV transactivator transcripts and Rta protein expression. (A) Schematic of the EBV transactivator locus and the three transcripts expressed from this locus. Dashed lines mark spliced introns; CDS, coding sequence; Rp, EBV BRLF1 promoter; Zp, EBV BZLF1 promoter; pA, 3′-polyadenylation site; green bar, location of the Northern blotting probe used in F and I. (B) qRT-PCR analysis of BRLF1 transcripts in HEK293T cells transfected with 0, 20, 40, or 60 nM UPF1-targeting siRNA for 24 h, followed by transfection of a plasmid encoding the complete EBV transactivator locus (left panel, orange) or the BRLF1 coding sequence (CDS) only (right panel, blue), together with pcDNA3-nlsGFP (internal control) for 48 h. Data was normalized to GFP transcript levels to control for differences in transfection efficiency and presented as fold abundance relative to cells without si.UPF1 (−). (C) qRT-PCR analysis of BZLF1 transcripts in HEK293T cells transfected with increasing amounts of si.UPF1 for 24 has in (B), followed by transfection for 48 h with a plasmid encoding the EBV BZLF1 locus (left panel, orange) or the BZLF1 CDS (right panel, blue), together with pcDNA3-nlsGFP (internal control). […] See 10E Fig for quantification of effects. […] See S6F Fig for quantification of effects. […] See S6G Fig for quantification of effects. […]

KSHV = KSHV reactivation: qRT-PCR of KSHV lytic transcripts after NMDI-1 treatment; assay type: cell-based; details: 25 μM NMDI-1, 24 to 120 h
Method: as §1, §2

## Cc1c2ccnc(Cl)c2c(C)c2c1[nH]c1ncccc12 [NMDI-1]
EBV; AGS-EBV cells
  EBV lytic gene expression: potent induction of lytic gene expression
EBV; EBV+ AKBM cells
  EBV lytic gene expression (BZLF1, BMRF1, BLLF1, BcLF1): striking induction of EBV lytic gene expression
EBV; EBV-transformed LCL cells from healthy-donor primary B cells
  EBV lytic gene expression: potent induction of lytic gene expression
[1]
  toxicity in in vivo studies: without apparent toxicity
AGS cells
  cell viability: did not or only minimally affect cell viability
BJAB cells
  cell viability: did not or only minimally affect cell viability
[2]
  BRLF1 transcript abundance compared to the mock-treated control: significant increase in BRLF1 transcript abundance
  levels of other EBV transcripts (BNRF1, BcLF1, BLLF1): not significantly affected
KSHV; KSHV+ BC3 PEL cells
  KSHV lytic transcripts Orf50, Orf26, Orf57 and/or Orf74: induced potent expression of the KSHV lytic transcripts
KSHV; KSHV+ BCBL1 PEL cells
  KSHV lytic transcripts Orf50, Orf26, Orf57 and/or Orf74: induced potent expression of the KSHV lytic transcripts
KSHV; KSHV+ HEK293T.rKSHV219 cells
  KSHV lytic transcripts Orf50, Orf26, Orf57 and/or Orf74: induced potent expression of the KSHV lytic transcripts
KSHV; KSHV+ iSLK.rKSHV219 cells
  KSHV lytic transcripts Orf50, Orf26, Orf57 and/or Orf74: induced potent expression of the KSHV lytic transcripts
